Test results reported in paper PMC5290327, “SC83288 is a clinical development candidate for the treatment of severe malaria” (Nature Communications, 2017).

Columns and labels:
FLT3(ITD) = test: KINOMEscan; type: binding, human; conditions: 10 μM
Protocol: The KINOMEscan was carried out by Ambit (San Diego, USA) according to a previously established protocol. The experiment was based on a competition binding assay that quantitatively measures the ability of a compound to compete with an immobilized, active-site directed ligand. The assay is performed by combining three components: DNA-tagged kinase; immobilized ligand; and a test compound. The ability of the test compound to compete with the immobilized ligand is measured via quantitative PCR of the DNA tag.
For most assays, kinase-tagged T7 phage strains were grown in parallel in 24-well blocks in an Escherichia coli host derived from the BL21 strain. E. coli were grown to log-phase and infected with T7 phage from a frozen stock and incubated with shaking at 32 °C until lysis (90–150 min). The lysates were centrifuged (6,000g) and filtered (0.2 μm) to remove cell debris. The remaining kinases were produced in HEK-293 cells (Sigma Aldrich, catalogue number: 85120602) and subsequently tagged with DNA for quantitative PCR detection. […] The liganded beads were blocked with excess biotin and washed with blocking buffer (SeaBlock (Pierce), 1% bovine serum albumin, 0.05% Tween 20 and 1 mM dithiothreitol) to remove unbound ligand and to reduce non-specific phage binding. […] The kinase concentration in the eluates was measured by quantitative PCR.

Measured pK = type: physicochemical
Protocol: SC81458 and SC83288 were soluble in water (890 and 940 μg ml^−1, respectively) and organic solvents. […] The compounds were stable in different physiological solutions, including artificial gastric juice, simulated intestinal fluid, phosphate-buffered saline and human plasma, when incubated for 6 h at 37 °C.

[1] = Allometric scaling, prediction of human PK

SMILES | Remaining enzyme activity (FLT3(ITD)) [%] | pK (Measured pK) | predicted human plasma clearance ([1]; allometric scaling, rule of exponents) [L/h] | total plasma clearance rate (higher estimate) ([1]; human) | total plasma concentration for […] the free MPC ([1]; human projection, assuming 78% plasma protein binding) [ng/mL]
CCCCN1CCN(C(=N)c2cccc(NC(=O)Nc3ccc(S(=O)(=O)NCc4ccc(S(N)(=O)=O)cc4)cc3)c2)CC1 [SC81458, 4-(3-(3-((4-butylpiperazin-1-yl)(imino)methyl)phenyl)ureido)-N-(4-sulfamoylbenzyl) benzenesulfonamide] | 85 |  |  |  | 
COC(=O)N1CCN(C(=N)c2cccc(NC(=O)Nc3ccc(S(=O)(=O)NCc4ccc(S(N)(=O)=O)cc4)cc3)c2)CC1 [SC83288, methyl 4-(imino(3-(3-(4-(N-(4-sulfamoylbenzyl)sulfamoyl)phenyl)ureido)phenyl)methyl) piperazine-1-carboxylate] |  | 9.82 | 14.7 | 15,180 ml h^−1 | 860
